# Test results as given in PubChem BioAssay (NCI).
#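 Exposure lasted 48 hours, with cells grown in 96-well plates and compounds tested at five concentrations. GI50 is the concentration that inhibits growth by half. TGI is the concentration that stops growth completely.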
# Experiments:
# Experiment in all cases: NCI tumour cell line growth inhibition, 48 h
# IGROV1 ovarian = test system: IGROV1 ovarian
# UACC-257 melanoma = test system: UACC-257 melanoma
# RPMI-8226 leukemia = test system: RPMI-8226 leukemia
# LOX IMVI melanoma = test system: LOX IMVI melanoma
# DU-145 prostate = test system: DU-145 prostate
# NCI-H522 lung = test system: NCI-H522 lung
# 786-0 renal = test system: 786-0 renal
# OVCAR-3 ovarian = test system: OVCAR-3 ovarian
# UACC-62 melanoma = test system: UACC-62 melanoma
# HOP-92 NSCLC = test system: HOP-92 NSCLC
SMILES,GI50 (IGROV1 ovarian) [µM],TGI (IGROV1 ovarian) [µM],GI50 (UACC-257 melanoma) [µM],TGI (UACC-257 melanoma) [µM],GI50 (RPMI-8226 leukemia) [µM],TGI (RPMI-8226 leukemia) [µM],GI50 (LOX IMVI melanoma) [µM],TGI (LOX IMVI melanoma) [µM],GI50 (DU-145 prostate) [µM],TGI (DU-145 prostate) [µM],GI50 (NCI-H522 lung) [µM],TGI (NCI-H522 lung) [µM],GI50 (786-0 renal) [µM],TGI (786-0 renal) [µM],GI50 (OVCAR-3 ovarian) [µM],TGI (OVCAR-3 ovarian) [µM],GI50 (UACC-62 melanoma) [µM],TGI (UACC-62 melanoma) [µM],GI50 (HOP-92 NSCLC) [µM],TGI (HOP-92 NSCLC) [µM]
NCCSC(c1ccccc1)(c1ccccc1)c1ccccc1,1.25,8.32,1.13,2.68,1.11,4.19,1.42,2.9,2.32,6.07,0.369,1.7,1.22,12.1,1.52,6.13,–,–,–,–
Cn1c(-c2c(N)n(Cc3ccc(F)cc3)c3nc(C#N)c(C#N)nc23)nc2ccccc21,–,–,4.51,> 50,1.35,7.17,0.739,2.18,3.02,21.6,–,–,0.918,3.59,0.842,2.6,3.37,26.6,1.63,18.4
N#CCc1nnc(N)o1,–,> 100,–,> 100,–,> 100,–,> 100,–,–,–,> 100,–,> 100,–,> 100,–,> 100,–,> 100
O=C(O)CN(c1ccc(F)cc1)S(=O)(=O)c1ccccc1,–,> 100,–,> 100,–,> 100,–,> 100,–,–,–,> 100,–,> 100,–,> 100,–,> 100,–,> 100
COC(=O)C1[C@H](c2ccc3c(c2)OCO3)OC(=O)[C@]1(C(=O)OC)C(=O)c1ccc(OC)c(OC)c1 (some centres undefined),–,> 100,–,> 100,–,> 100,–,36.1,–,–,–,–,–,> 100,–,> 100,–,> 100,–,> 100
O=C(O)Cc1ccc(N=Nc2c(O)c(C(=O)O)cc3ccccc23)cc1,–,> 100,–,> 100,–,> 100,–,–,–,> 100,–,–,–,> 100,–,> 100,–,> 100,–,> 100
CC[PH+](CC)CC.CC[PH+](CC)CC.[Au],14.5,34.3,11.4,24.4,3.87,30.2,8.67,24.2,–,–,0.308,1.25,7.35,19.7,18.2,33.2,3.9,19.1,7.43,15.2
CCOC(=O)CN(c1ccccc1)c1nc(=[N+](C)C)ss1,–,–,–,96,–,55.5,–,–,–,–,–,0.492,–,> 100,–,2,–,59.3,–,–
COC(=O)CNc1nc(N(C)O)nc(N(C)O)n1,7.38,39.4,11.6,80.3,1.49,> 100,1.71,> 100,2.15,45,3.73,> 100,3.56,66.8,–,–,4.3,29.1,> 100,> 100
CC(=O)OCC1OC(n2ncc(=O)[nH]c2=O)C(OC(C)=O)C1OC(C)=O (centres undefined),–,> 100,–,–,–,> 100,–,> 100,–,> 100,–,> 100,–,> 100,–,> 100,–,> 100,–,> 100
O=c1cccc2n1CC1CNC[C@H]2C1,–,> 100,–,> 100,–,–,–,> 100,–,> 100,–,> 100,–,> 100,–,> 100,–,> 100,–,> 100
Cc1ccc(C(=O)NCCN(C)C)c2nc3ccccc3cc12,–,> 100,–,6.01,–,> 100,–,10.4,–,–,–,–,–,> 100,–,6.79,–,> 100,–,> 100
CC(=O)N[C@@H](Cc1ccc(OP(=O)(O)O)cc1)C(=O)N[C@H]1CCC(=O)N2CCC[C@@H](C(=O)NCc3ccccc3)N2C1=O,> 25,> 25,> 25,> 25,> 25,> 25,> 25,> 25,> 25,> 25,> 25,> 25,> 25,> 25,> 25,> 25,> 25,> 25,–,–
O=C1CC(N2C(=O)/C(=C/C(Cl)=C\c3ccc([N+](=O)[O-])cc3)SC2=S)C(=O)N1c1ccc(O)cc1 (centres undefined),1.2,2.68,2.48,9.12,0.295,4.36,–,–,1.72,3.37,1.86,4.23,1.23,4.81,0.604,1.96,1.67,3.38,1.62,3.72
Cc1ccc(C2=Nc3ccccc3S(=O)C(c3ccc4c(c3)OCO4)C2)cc1 (centres undefined),–,> 100,–,88.4,–,–,–,29.8,–,–,–,44.7,–,44,–,69.4,–,51.2,–,–
NC(N)=N/N=C/c1c(-c2cccnc2)nc2sc(Cl)cn12,17.5,58.5,20.4,40.5,18,42,12.4,24.8,–,–,30.6,> 100,17,46.6,15.3,30.1,14.1,27.1,–,–
O=C1C(=O)N(c2ccc(Cl)cc2)C(=O)C(=Nc2cccc3c(=O)[nH][nH]c(=O)c23)C1c1nc2ccccc2o1 (centres undefined),–,> 100,–,> 100,–,> 100,–,> 100,–,–,–,–,–,> 100,–,> 100,–,> 100,–,> 100
COc1cc(CCNC(=O)OC(C)(C)C)c2c(c1OC)SSSSS2,2.2,4.63,2.93,5.48,2.11,10.7,2.79,6.75,–,–,2.1,4.18,2.08,5.56,2.65,5.51,3.93,15.5,2.31,4.79
